Several values for one entry are separate records, joined by “and”; a condition that tells them apart may be missing. Equal entries are not always repeated.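 Step 1: Grow cells in 96-well plates. Step 2: Expose to compound for 48 hours at 5 concentrations. Step 3: Interpolate endpoints linearly; if unreached, use highest concentration. Abbreviation: GI50, concentration required for 50% inhibition of growth. TGI: concentration producing complete growth inhibition.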
What was measured:
Test in all cases: DTP human tumour cell line panel, 48 h
NCI-H23 lung = system: NCI-H23 lung
CCRF-CEM leukemia = system: CCRF-CEM leukemia
SNB-75 CNS = system: SNB-75 CNS
K-562 leukemia = system: K-562 leukemia
BT-549 breast = system: BT-549 breast
COLO 205 colon = system: COLO 205 colon
SR leukemia = system: SR leukemia
A498 renal = system: A498 renal

SMILES | GI50 (NCI-H23 lung) | TGI (NCI-H23 lung) | GI50 (CCRF-CEM leukemia) | TGI (CCRF-CEM leukemia) | GI50 (SNB-75 CNS) | TGI (SNB-75 CNS) | GI50 (K-562 leukemia) | TGI (K-562 leukemia) [µM] | GI50 (BT-549 breast) | TGI (BT-549 breast) | GI50 (COLO 205 colon) | TGI (COLO 205 colon) | GI50 (SR leukemia) | TGI (SR leukemia) | GI50 (A498 renal) | TGI (A498 renal)
CCCCOC(=O)c1c(C)[nH]c(/C=C2\N=C(c3ccc[nH]3)C=C2OC)c1C | 0.254 µM | 2.6 µM | 0.0583 µM | > 20.4 µM | 0.124 µM | 0.892 µM | 0.155 µM | 8.61 | 0.65 µM | 12.1 µM | 0.274 µM | 1.67 µM | 0.0821 µM | 1.47 µM | 0.342 µM | 2.16 µM
O=C(CCCn1ccnc1[N+](=O)[O-])NCCn1cnc([N+](=O)[O-])n1 |  | > 100 µM |  | > 100 µM |  | > 100 µM |  | > 100 |  | > 100 µM |  | > 100 µM |  | > 100 µM |  | > 100 µM
Fc1ccc(Nc2nc3nonc3nc2Nc2ccc(I)cc2)cc1 | 0.265 µM | 1.31 µM | 0.22 µM | 4.47 µM | 0.263 µM | 11.7 µM | 0.181 µM | 11 | 0.266 µM | 2.02 µM | 0.208 µM | 0.55 µM | 0.252 µM | 1.91 µM | 0.227 µM | 0.708 µM
CCCCCCCCCCCCCCCCCC[S+](C)CC (stereo not given) | 1.38 µM | 3.2 µM |  |  |  |  |  |  |  |  | 1.42 µM | 2.81 µM |  |  | 1.71 µM | 4.36 µM
NC1(C(=O)N[C@@H](CCO)c2ccc(Cl)cc2)CCN(c2ncnc3[nH]ccc23)CC1 | > 3.45 µM and 13.9 µM | > 100 µM | 0.499 µM and 1.18 µM | > 58.4 µM | 0.245 µM and 0.11 µM | > 3.28 µM and 2.19 µM | > 5.28 µM and 59.9 µM | > 100 | 0.366 µM and 0.624 µM | > 5.01 µM and 13 µM | 1.9 µM and 10.9 µM | > 83.7 µM | 2.24 µM and 5.95 µM | > 10 µM and 39.5 µM | 0.0709 µM and 0.135 µM | 0.522 µM and 0.939 µM
CC(=O)ON=C1C=CC(=C(C#N)c2ccccc2)C=C1 | 4.71 µM | > 47.4 µM | 0.387 µM | > 100 µM | 2 µM | 13.7 µM | 0.556 µM | > 45 | 3.9 µM | 12.5 µM | 6.02 µM | 19.3 µM | 0.619 µM | 16.5 µM | 12.6 µM | 47 µM
CN(C)CCCCNc1ccc(NCCCCN(C)C)c2c1C(=O)c1c(O)ccc(O)c1C2=O | 1.63 µM | 2.98 µM |  |  | 12.8 µM | 25.3 µM |  |  | 16 µM | 29.5 µM | 13.6 µM | 28.6 µM | 1.72 µM | 5.01 µM | 13.5 µM | 26.3 µM
COc1cc2c(cc1[N+](=O)[O-])C(=O)C(Br)(Br)CCC2 |  | 8.59 µM |  | 3.35 µM |  | 25.8 µM |  | 6.27 |  | 4.97 µM |  | 3.57 µM |  | 4.96 µM |  | 28.6 µM
COc1ccc(/C=C/C(=O)/C=C(O)/C=C/c2ccc(OC)c(OC)c2)cc1OC | 3.94 µM | 21.8 µM | 3.66 µM | > 100 µM | 16.5 µM | 69 µM | 1.16 µM | > 100 |  |  | 34.4 µM | > 100 µM | 1.68 µM | > 100 µM |  | 
O=C(CN1CCN(C(=O)c2ccco2)CC1)Nc1ccc(Cl)cc1C(=O)c1ccccc1Cl | 10.4 µM | 62.2 µM | 5.28 µM | > 100 µM | 2.73 µM | 28.3 µM | 0.691 µM | 10.5 | 2.62 µM | 13.1 µM | 7.32 µM | 23.7 µM | 0.896 µM | 2.76 µM | 6.8 µM | 22.9 µM
CO/C(=C1/NC(=O)C(Cc2ccc(O)c(Br)c2)N(C)C(=O)C(C)NC(=O)CCC/C=C(\C)CCC(C)OC1=O)c1ccccc1 (stereo not given) | 0.106 µM | 22.4 µM | 0.0185 µM | 0.0805 µM |  |  | 0.335 µM | > 100 | 0.0368 µM | 0.105 µM | 0.0233 µM | > 100 µM |  | > 100 µM | 0.0174 µM | 0.0357 µM
c1ccc(CC(Nc2cccnc2)c2ccccc2)cc1 (stereo not given) |  | 82.2 µM |  | 46.2 µM |  | 60.1 µM |  | > 100 |  | 65.6 µM |  | 37 µM |  | 50.9 µM |  | > 100 µM
Cc1cc(-c2cc(OC(=O)c3ccccc3)ccc2Cl)cc2nnc(Nc3ccc(OCCN4CCCC4)cc3)nc12 | 1.72 µM | 3.66 µM |  |  | 0.508 µM | 1.89 µM | 0.0472 µM | 0.324 | 2.67 µM | 6.68 µM | 1.68 µM | 3.6 µM | 0.46 µM | 2.48 µM | 9.84 µM | 
CC#CC#C/C(=C/C=CC(=O)OC)SC |  |  |  |  |  | > 100 µM |  | > 100 |  | > 100 µM |  | > 100 µM |  |  |  | > 100 µM
COc1c(B(O)O)cccc1-c1nc2c(F)cc3n[nH]c(C)c3c2c2c1CCCC2 | 1.33 µM | > 27.8 µM | 0.373 µM | > 50 µM | 0.0152 µM | 0.168 µM | 1.68 µM | > 50 | 0.238 µM | 3.14 µM | 1.51 µM | 5.26 µM | 0.964 µM | > 24.3 µM |  | 
COc1cc2c(cc1-c1coc3cc(O)ccc3c1=O)OCO2 |  | 40.3 µM |  | > 100 µM |  | 46.1 µM |  | > 100 |  | 41.2 µM |  | > 100 µM |  |  |  | 80.5 µM
COc1cc(N2CCC(N)CC2)ccc1Nc1ncc(Cl)c(-c2c[nH]c3ccccc23)n1 | 0.925 µM | 3.06 µM | 2.17 µM | 7.15 µM | 0.417 µM | 1.97 µM | 1.58 µM | 5.03 | 1.56 µM | 3.39 µM | 0.0248 µM | 0.269 µM |  |  | 0.123 µM | 0.386 µM
CCn1ncc(N=O)c1N |  | > 100 µM |  | > 100 µM | 22 µM and 58 µM | > 100 µM |  | > 100 |  |  |  | > 100 µM |  | > 100 µM |  | 
O=C1c2ccc3c4c(ccc(c24)C(=O)N1CCNCc1ccccc1)C(=O)N(CCNCc1ccccc1)C3=O | 1.86 µM | 3.89 µM | 2.51 µM | > 100 µM | 3.19 µM | 43.1 µM | 0.365 µM | > 100 | 2.45 µM | 6.19 µM | 1.65 µM | 3.01 µM |  |  | 15.6 µM | 37.8 µM
CN1CCN(CCC=C2c3ccccc3Sc3ccc(S(=O)(=O)N(C)C)cc32)CC1 | 12.2 µM and 15.7 µM | 71 µM and 52.7 µM | 3.12 µM and 4.36 µM | 20.1 µM and 23 µM |  |  | 2.21 µM and 1.63 µM | 4.72 | 8.06 µM and 13 µM | 23 µM and 29.2 µM | 1.44 µM and 1.66 µM | 2.82 µM and 3.7 µM | 2.19 µM | 7.74 µM | 2.19 µM and 3.51 µM | 13.2 µM and 17 µM
COC1C(=O)CCC2(CO2)C1(O)C1(C)OC1CC=C(C)C (stereo not given) |  | > 100 µM |  |  |  | > 100 µM |  | 76.3 |  | > 100 µM |  | > 100 µM |  | > 100 µM |  | > 100 µM
COC(=O)Nc1nc2ccc(C(=O)c3ccc(F)cc3)cc2[nH]1 | 1.12 µM | 56.2 µM |  |  | 0.205 µM | 12.4 µM |  |  | 2.44 µM | > 100 µM | 0.152 µM | 0.554 µM | 0.0442 µM | > 100 µM | 0.403 µM | 4.47 µM
CCCCCCCCCC[C@H](O)[C@H]1CC[C@@H]([C@@H](O)CC[C@H](O)[C@@H]2CCC(CCCCCCC[C@@H](O)CC3=C[C@H](C)OC3=O)O2)O1 (stereo not given in full) |  | 3.68 µM and 19.2 µM | 2.08 µM | 12.3 µM | 9.29 µM | 9.56 µM and 28.1 µM |  | 19.2 |  |  |  | 4.38 µM and 6 µM |  |  |  | 
COc1cc(C2CC(c3cccc(Nc4ccnc5cc(Cl)ccc45)c3)=NN2c2ccccc2)cc(OC)c1OC (stereo not given) | 64.4 µM | > 100 µM | 6.4 µM | > 100 µM | 6.6 µM | > 100 µM | 3.75 µM | > 100 | 13.9 µM | > 100 µM | 15.7 µM | 46.3 µM | 5.49 µM | > 100 µM |  | 
Cc1c(Cl)c(C)c(Cl)c(O)c1Cl |  | 94 µM |  | > 100 µM |  | > 100 µM |  | 46.3 |  | 81.7 µM |  | > 100 µM |  |  |  | 68.7 µM
CC(C)C1=CC2=C(C(=O)C1=O)C13CCCC(C)(C)C1CC2OC3=O (stereo not given) |  | 61.7 µM |  | 33.1 µM |  | 63.8 µM |  | 19.7 |  | 37.4 µM |  | 34.8 µM |  |  |  | 52.2 µM
COc1cc(C)[nH]c(=O)c1CNC(=O)c1c(C)n([C@H](C)C2CCN(CC(F)(F)F)CC2)c2ccccc12 | > 100 µM | > 100 µM | 50.4 µM | > 100 µM | 36.1 µM | > 100 µM | 48.5 µM | > 100 | 33.6 µM | > 100 µM |  |  | 51.8 µM | > 100 µM | 28.2 µM | > 100 µM
O=C(O)c1ccc(/C=N/N=C2c3ccccc3-c3ccccc32)cc1 |  | > 100 µM |  | > 100 µM |  |  |  | > 100 |  | > 100 µM |  | > 100 µM |  | > 100 µM |  | > 100 µM
